What was measured:
[1] = tested on: human iPSC-derived cardiomyocytes; assay: Calcium oscillation assay in iPSC-derived cardiomyocytes (FLIPR Penta, EarlyTox Cardiotoxicity Kit, Peak Pro 2 analysis); type: cell-based; settings: for primary peak prolongation / spacing of primary peaks: after thirty minutes treatment; for peaks detected in calcium oscillation trace (primary / secondary peaks): recorded two minutes after thirty minutes treatment
Description: Development of biologically relevant and predictive cell-based assays for compound screening and toxicity assessment is a major challenge in drug discovery. The focus of this study was to establish high-throughput-compatible cardiotoxicity assays using human-induced pluripotent stem cell (iPSC)-derived cardiomyocytes. To assess the utility of human iPSC-derived cardiomyocytes as an in vitro pro-arrhythmia model, the concentration dependence and responses were evaluated for 28 drugs linked to low, intermediate, and high torsades de pointes (TdP) risk categories. […] This assay allows for the characterization of parameters such as beating frequency, amplitude, peak width, and rise and decay times. […] The iPSC-derived cardiomyocytes generate spontaneous synchronized calcium oscillations. High speed fluorescence imaging with the FLIPR® Penta® System was used to measure the patterns and frequencies of the Ca^2+ oscillations in cardiomyocytes as monitored by changes in intracellular Ca^2+ levels with the EarlyToxTM Cardiotoxicity Kit. A set of 28 known cardiotoxic compounds, plus several benchmark compounds and negative controls, were tested in the assay. iPSC-derived Cardiomyocytes: Cryopreserved human iPSC-derived cells from Cellular Dynamics International (CDI) iCell® Cardiomyocytes2 were used for experiments. Cells were thawed and plated at 20,000/well (96-well format) or 10,000/well into 384-well format plates (Corning) and incubated for 7 days in maintenance media. […] In addition, assay-ready 384-Well plates with cardiomyocytes1 were obtained from […], Inc. Plates were shipped pre-plated and allowed to recover after arrival for 2 days. […] The FLIPR® Penta® System equipped with a new high speed camera allows better resolution of calcium oscillation patterns in cardiomyocytes. The ScreenWorks® Peak ProTM 2 software allows complex event analysis and detailed characterization of patterns using more than 20 available pattern descriptors. The assay can be used for testing developing drugs and screening chemicals for potential cardiotoxic hazards.

[2] = tested on: Human iPSC-derived neural 3D co-cultures (microBrain 3D spheroids); assay: Calcium oscillation assay in iPSC-derived neural 3D spheroids (microBrain 3D, FLIPR Calcium 6 Assay Kit, Peak Pro 2 analysis); type: cell-based; settings: neural spheroid; for frequency of primary peaks relative to control: control DMSO; for peaks detected in calcium oscillation trace (primary / secondary peaks): recorded ten minutes after 30 minutes treatment
Text: Human iPSC-derived neural 3D co-cultures (StemoniX® microBrain® 3D platform) have been developed as a high-throughput screening platform that more closely resembles the constitution of native human cortical brain tissue. Neural spheroid 3D co-cultures are a physiologically relevant co-culture of iPSC-derived, functionally-active cortical glutamatergic and GABAergic neurons co-differentiated and matured with astrocytes from the same donor. 3D neural spheroids contain a neural network enriched in synapses, creating a highly functional neuronal circuitry and display spontaneous synchronized, readily detectable calcium oscillations.
The neuronal cells in the microBrain® 3D spheroids generate spontaneous synchronized calcium oscillations. Fast kinetic fluorescence imaging by the FLIPR® Penta® system was employed to measure the patterns and frequencies of Ca^2+ oscillations of neuro-spheroids, as monitored by changes in intracellular Ca^2+ levels with the FLIPR® Calcium 6 Assay Kit. A set of known neuromodulators was tested, including agonists and antagonists of NMDA, GABA and AMPA receptors; kainic acid; and analgesic and anti-epileptic drugs. The fluorescence from each well of an entire 384-well plate was recorded simultaneously at a frequency of 2 Hz (0.5 second sampling interval) by high-speed imaging using the FLIPR® Penta® system.
Advanced analysis methods implemented in the ScreenWorks® Peak Pro™ 2 software module provide multi-parametric characterization of Ca^2+ flux oscillation patterns. This phenotypic assay creates readouts such as oscillation frequency, amplitude, peak width, peak rise and decay times, and peak amplitude/spacing irregularity. The effects of modulators of neuronal activity were evaluated by measuring changes in several measurements.
A set of over twenty compounds, including a number of known modulators of neuronal activity, was assayed at different time points and concentrations, and the EC50 values were calculated for compound effects. The time points included 0, 15, 30, 60, 90, and 120 minutes, and 24 hours.

[3] = 0.3 μM, after 30 minutes treatment
[4] = 10 μM, after 30 minutes treatment

For CCCCCCCN(CC)CCCC(O)c1ccc(NS(C)(=O)=O)cc1 (stereo not shown) [ibutilide], the primary peak prolongation ([1]; 1 μM) was “prolongated” and the “peaks detected in calcium oscillation trace (primary / secondary peaks)” value ([1]; 1 μM) was “Primary peaks 118 and secondary peaks 150 are present”.

With CC(C)NCC(O)c1ccc(NS(C)(=O)=O)cc1 (stereo not shown) [sotalol] the primary peak prolongation ([1]; 10 μM) was “prolongated”, the “spacing of primary peaks” value ([1]; 10 μM) was “irregular spacing” and the “peaks detected in calcium oscillation trace (primary / secondary peaks)” value ([1]; 10 μM) was “Primary peaks 118 and secondary peaks 150 are detected”.

In the case of C=C[C@H]1C[N@@]2CC[C@H]1C[C@@H]2[C@@H](O)c1ccnc2ccc(OC)cc12 [quinidine], the primary peak prolongation ([1]; 10 μM) is reported as “prolongated”, the “spacing of primary peaks” value ([1]; 10 μM) is reported as “irregular spacing” and the “peaks detected in calcium oscillation trace (primary / secondary peaks)” value ([1]; 10 μM) is reported as “Primary peaks 118 and secondary peaks 150 are detected”.

In the case of CN(CCOc1ccc(NS(C)(=O)=O)cc1)CCc1ccc(NS(C)(=O)=O)cc1 [dofetilide], the “spacing of primary peaks” value ([1]; 10 μM) is reported as “irregular spacing”.

In the case of CC(C)[C@@H]1NC(=O)[C@H](C)OC(=O)[C@@H](C(C)C)NC(=O)[C@@H](C(C)C)OC(=O)[C@H](C(C)C)NC(=O)[C@H](C)OC(=O)[C@@H](C(C)C)NC(=O)[C@@H](C(C)C)OC(=O)[C@H](C(C)C)NC(=O)[C@H](C)OC(=O)[C@@H](C(C)C)NC(=O)[C@@H](C(C)C)OC1=O [valinomycin], the “amplitude and spacing regularity of primary peaks” value [2, 3] is reported as “much more variable”, the “frequency of primary peaks relative to control” value [2, 3] is reported as “much less than control” and the “peaks detected in calcium oscillation trace (primary / secondary peaks)” value ([2]; 0.3 μM) is reported as “Primary peaks 118 and secondary peaks 150 are detected”.

With NCCCC(=O)O [GABA] the “frequency of primary peaks relative to control” value [2, 4] was “significantly lower frequency than control” and the “peaks detected in calcium oscillation trace (primary / secondary peaks)” value ([2]; 10 μM) was “Only primary peaks 118 are detected”.

C=C(C)[C@H]1CN[C@H](C(=O)O)[C@H]1CC(=O)O [kainic acid] was tested, and the “frequency of primary peaks relative to control” value ([2]; 1 μM, after 30 minutes treatment) was “increased relative to control” and the “peaks detected in calcium oscillation trace (primary / secondary peaks)” value ([2]; 1 μM) was “Primary peaks 118 and numerous secondary peaks 150 are detected”.

For Nc1ccncc1 [4-aminopyridine], the “frequency of primary peaks relative to control” value ([2]; 30 μM, after 30 minutes treatment) was “increased relative to control” and the “peaks detected in calcium oscillation trace (primary / secondary peaks)” value ([2]; 30 μM) was “Primary peaks 118 and secondary peaks 150 are detected”.

NCC(CC(=O)O)c1ccc(Cl)cc1 (stereo not shown) [baclofen] was tested, and the “spacing and amplitude regularity of primary peaks” value [2, 4] was “irregular spacing and amplitude”, the “frequency of primary peaks relative to control” value [2, 4] was “significantly lower frequency than control” and the “peaks detected in calcium oscillation trace (primary / secondary peaks)” value ([2]; 10 μM) was “Only primary peaks 118 are detected”.

COc1ccc(CCN2CCC(Nc3nc4ccccc4n3Cc3ccc(F)cc3)CC2)cc1 [astemizole] was tested, and the “peaks detected in calcium oscillation trace (primary / secondary peaks)” value ([1]; 1 μM) was “No valid peaks are detected”.

Reference: patent US20220364990A1, “ANALYSIS OF OSCILLATORY FLUORESCENCE FROM BIOLOGICAL CELLS” (MOLECULAR DEVICES, LLC, priority 2019, published 2022)
